In US7449477B2, “7-phenyl-isoquinoline-5-sulfonylamino derivatives as inhibitors of akt (protein kinase B)” (Eli Lilly and Company, priority 2003, dated 2008):
Where a name gives a salt, the structure may show the parent alone.

target: T1, active human Akt1 (Homo sapiens, UniProt P31749); assay: Akt1 Phosphorylation Assay (phosphocellulose filter-binding, 33P-Crosstide); assay type: biochemical; conditions: active human recombinant Akt1 (full-length) 10 nM; 12.5 μM Crosstide; 20 μM ATP; 30 minutes at room temperature
T1 construct: Active human recombinant Akt1 (full-length) purified from Sf9 insect cells; purchased Upstate Biotechnology, Inc. 14-276; host or cells: Sf9 insect cells
T1 sequence (P31749 whole entry): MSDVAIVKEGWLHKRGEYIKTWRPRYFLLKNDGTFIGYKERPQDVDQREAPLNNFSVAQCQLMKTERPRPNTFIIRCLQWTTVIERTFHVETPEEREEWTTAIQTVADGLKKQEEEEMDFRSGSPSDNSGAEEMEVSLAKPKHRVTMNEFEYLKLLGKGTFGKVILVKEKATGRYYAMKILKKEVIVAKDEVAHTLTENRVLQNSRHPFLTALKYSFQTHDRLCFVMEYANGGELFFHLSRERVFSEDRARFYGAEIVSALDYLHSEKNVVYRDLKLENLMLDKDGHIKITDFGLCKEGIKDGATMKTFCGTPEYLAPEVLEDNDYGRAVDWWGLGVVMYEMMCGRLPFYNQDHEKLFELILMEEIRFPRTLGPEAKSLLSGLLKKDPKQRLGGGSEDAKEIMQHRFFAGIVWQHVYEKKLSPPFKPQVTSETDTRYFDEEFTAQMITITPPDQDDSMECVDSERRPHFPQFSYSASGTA
Experimental: Akt1 Phosphorylation Assay
The assay described measures the phosphorylation of Crosstide by active human Akt1 and other Akt isoforms. Crosstide contains a consensus sequence derived from Akt substrates GSK3b and forkhead transcription factors (FKs). The ^33P-labeled Crosstide substrate is captured by phosphocellulose membrane filter plates.
Active human recombinant Akt1 (full-length) purified from Sf9 insect cells is from Upstate Biotechnology, Inc. (Cat. #14-276, 405 μg/ml). Crosstide substrate, NH2-GRPRTSSFAEG-COOH (M.W.1164) is purchased from Multiple Peptide System (Cat. # L59/GR145-153).
Solution (A): 20% DMSO (dimethylsulphoxide) or Compound in 20% DMSO; Solution (B): Assay Buffer Mix: 31.25 μM Crosstide, 37.5 mM MgCl2, 87.5 mM HEPES, pH 7.3, 50 μM ATP γ-^33P-ATP, 0.05 μCi/μl; Solution (C): Akt Kinase Mix: 31.25 mM HEPES, pH 7.3; 1 mM DTT, 25 nM UBI Akt1.
Procedure for Phosphocellulose Filter-Binding Assay
Ten μl of Solution (A) are first mixed with 20 μl Solution (B). The enzymatic reaction is initiated by adding 20 μl Solution (C) to the mixture. (Final concentration or amount in a 50-μl reaction mix: 4% DMSO or various compound concentration in 4% DMSO; 12.5 μM Crosstide; 15 mM MgCl2; 35 mM HEPES, pH7.3; 20 μM ATP; 1 μCi γ-^33P-ATP; 0.4 mM DTT; 10 nM UBI Akt1.) The reactions are performed in 96-well microtiter plates.
After 30 minutes at room temperature, the reaction is terminated by adding 80 μl of 10% H3PO4. An aliquot of 100 μl from each well is transferred to the phosphocellulose filter plate (Millipore MultiScreen, Catalog #MAPHN0B50). After 30 minutes, the reaction mix is filtered with a Millipore manifold following by 3 washes with 0.5% H3PO4. The filter is then vacuum-dried and the plate is fitted onto a Packard carrier. 100 μl/well Microscint20 are added and the contents are counted in a Packard Top Count.

SMILES	IC50 [nM]
COc1cccc(CCCNCCNS(=O)(=O)c2cc(-c3ccccc3)cc3cnccc23)c1 [Example 31, 7-Phenyl-isoquinoline-5-sulfonic acid {2-[3-(3-methoxyphenyl)-propylamino]-ethyl}-amide, dihydrochloride salt]	≤ 2000
CS(=O)(=O)c1ccc(CCCNCCNS(=O)(=O)c2cc(-c3ccccc3)cc3cnccc23)cc1 [Example 100, 7-Phenyl-isoquinoline-5-sulfonic acid {2-[3-(4-methanesulfonyl-phenyl)-propylamino]-ethyl}-amide, dihydrochloride salt]	≤ 2000
O=S(=O)(NCCNCCCc1ccc(Br)cc1)c1cc(-c2ccccc2)cc2cnccc12 [Example 4, 7-Phenyl-isoquinoline-5-sulfonic acid {2-[3-(4-bromophenyl)-propylamino]-ethyl}-amide, dihydrochloride salt]	≤ 2000
CN1CCC(Oc2cc(Cl)ccc2CCCNCCNS(=O)(=O)c2cc(-c3ccccc3)cc3cnccc23)C1 (centres unmarked) [Example 55, 7-Phenyl-isoquinoline-5-sulfonic acid {2-[3-(4-chloro-2-(1-methyl-pyrrolidin-3-yl)oxy-phenyl)-propylamino]-ethyl}-amide, trihydrochloride salt]	≤ 2000
O=[N+]([O-])c1ccc(CCCNCCNS(=O)(=O)c2cc(-c3ccccc3)cc3cnccc23)c(CCO)c1 [Example 58, 7-Phenyl-isoquinoline-5-sulfonic acid {2-[3-(2-(2-hydroxy-ethyl)-4-nitro-phenyl)-propylamino]-ethyl}-amide, dihydrochloride salt]	≤ 2000
O=S(=O)(NCCNCCCc1ccc(F)cc1F)c1cc(-c2ccccc2)cc2cnccc12 [Example 70, 7-Phenyl-isoquinoline-5-sulfonic acid {2-[3-(2,4-difluorophenyl)-propylamino]-ethyl}-amide, dihydrochloride salt]	≤ 2000
O=C(O)c1cc([N+](=O)[O-])ccc1CCCNCCNS(=O)(=O)c1cc(-c2ccccc2)cc2cnccc12 [Example 64, 7-Phenyl-isoquinoline-5-sulfonic acid {2-[3-(2-carboxy-4-nitrophenyl)-propylamino]-ethyl}-amide, dihydrochloride salt]	≤ 2000
COc1ccc(CCCNCCNS(=O)(=O)c2cc(-c3ccc(O)cc3)cc3cnccc23)c(F)c1 [Example 108, 7-(4-Hydroxy-phenyl)-isoquinoline-5-sulfonic acid {2-[3-(2-fluoro-4-methoxy-phenyl)-propylamino]-ethyl}-amide]	≤ 2000
O=S(=O)(NCCNCCCc1ccc(Cl)cc1N1CCNCC1)c1cc(-c2ccccc2)cc2cnccc12 [Example 44, 7-Phenyl-isoquinoline-5-sulfonic acid {2-[3-(4-chloro-2-piperazin-1-yl-phenyl)-propylamino]-ethyl}-amide, tetrahydrochloride salt]	≤ 2000
O=[N+]([O-])c1ccc(CC(O)CNCCNS(=O)(=O)c2cc(-c3ccccc3)cc3cnccc23)cc1 (racemic) [Example 83, 7-Phenyl-isoquinoline-5-sulfonic acid [2-(2-hydroxy-3-(4-nitrophenyl)-propylamino)-ethyl]-amide, dihydrochloride salt]	≤ 2000
O=S(=O)(NCCNCCCc1ccc(F)cc1-c1ccccc1)c1cc(-c2ccccc2)cc2cnccc12 [Example 36, 7-Phenyl-isoquinoline-5-sulfonic acid {2-[3-(5-fluoro-biphenyl-2-yl)-propylamino]-ethyl}-amide, dihydrochloride salt]	≤ 2000
O=S(=O)(NCCNCCC(O)c1ccc(S(=O)(=O)C(F)(F)F)cc1)c1cc(-c2ccccc2)cc2cnccc12 (centres unmarked) [Example 80, 7-Phenyl-isoquinoline-5-sulfonic acid [2-(3-hydroxy-3-(4-trifuoromethanesulfonyl-phenyl)-propylamino)-ethyl]-amide, dihydrochloride salt]	≤ 2000
CC1CN(c2cc(Cl)ccc2CCCNCCNS(=O)(=O)c2cc(-c3ccccc3)cc3cnccc23)CCN1 (centres unmarked) [Example 54, 7-Phenyl-isoquinoline-5-sulfonic acid {2-[3-(4-chloro-2-(3-methyl-piperazin-1-yl)-phenyl)-propylamino]-ethyl}-amide, tetrahydrochloride salt]	≤ 2000
O=S(=O)(NCCNCCCc1cccc(O)c1)c1cc(-c2ccccc2)cc2cnccc12 [Example 18, 7-Phenyl-isoquinoline-5-sulfonic acid {2-[3-(3-hydroxyphenyl)-propylamino]-ethyl}-amide, dihydrochloride salt]	≤ 2000
O=[N+]([O-])c1ccc(CCCNCCNS(=O)(=O)c2cc(-c3ccccc3)cc3cnccc23)cc1O [Example 105, 7-Phenyl-isoquinoline-5-sulfonic acid {2-[3-(3-hydroxy-4-nitro-phenyl)-propylamino]-ethyl}-amide, dihydrochloride salt]	≤ 2000
CSc1ccc(CCCNCCNS(=O)(=O)c2cc(-c3ccccc3)cc3cnccc23)cc1 [Example 35, 7-Phenyl-isoquinoline-5-sulfonic acid {2-[3-(4-methylthiophenyl)-propylamino]-ethyl}-amide, dihydrochloride salt]	≤ 2000

Next, values leading:

IC50 [nM]	SMILES
≤ 2000	O=S(=O)(NCCNCCCc1ccc(Cl)cc1OC1CCNC1)c1cc(-c2ccccc2)cc2cnccc12 (centres unmarked) [Example 56, 7-Phenyl-isoquinoline-5-sulfonic acid {2-[3-(4-chloro-2-(pyrrolidin-3-yl)oxy-phenyl)-propylamino]-ethyl}-amide, trihydrochloride salt]
≤ 2000	O=S(=O)(NCCNCCCc1ccc(Cl)cc1OCCN1CCOCC1)c1cc(-c2ccccc2)cc2cnccc12 [Example 69, 7-Phenyl-isoquinoline-5-sulfonic acid (2-{3-[4-chloro-2-(2-morpholino-4-yl-ethoxy)-phenyl]-propylamino}-ethyl)-amide, dihydrochloride salt]
≤ 2000	O=S(=O)(NCCNCCCc1ccccc1N1CCNCC1)c1cc(-c2ccccc2)cc2cnccc12 [Example 11, 7-Phenyl-isoquinoline-5-sulfonic acid {2-[3-(2-(piperazin-1-yl-phenyl)-propylamino]-ethyl}-amide, tetrahydrochloride salt]
≤ 2000	O=[N+]([O-])c1ccc([C@H](O)CCNCCNS(=O)(=O)c2cc(-c3ccccc3)cc3cnccc23)cc1 [Example 81, (R)-7-Phenyl-isoquinoline-5-sulfonic acid [2-(3-hydroxy-3-(4-nitrophenyl)-propylamino)-ethyl]-amide, mesylate salt]
≤ 2000	O=[N+]([O-])c1ccc(C(O)C(O)CNCCNS(=O)(=O)c2cc(-c3ccccc3)cc3cnccc23)cc1 (centres unmarked) [Example 87, 7-Phenyl-isoquinoline-5-sulfonic acid [2-(2,3-dihydroxy-3-(4-nitrophenyl)-propylamino)-ethyl]-amide, dihydrochloride salt]
≤ 2000	O=[N+]([O-])c1cccc(CCCNCCNS(=O)(=O)c2cc(-c3ccccc3)cc3cnccc23)c1 [Example 101, 7-Phenyl-isoquinoline-5-sulfonic acid {2-[3-(3-nitro-phenyl)-propylamino]-ethyl}-amide, dihydrochloride salt]
≤ 2000	Cc1cc(C#N)ccc1CCCNCCNS(=O)(=O)c1cc(-c2ccccc2)cc2cnccc12 [Example 104, 7-Phenyl-isoquinoline-5-sulfonic acid {2-[3-(4-cyano-2-methyl-phenyl)-propylamino]-ethyl}-amide, dihydrochloride salt]
≤ 2000	O=S(=O)(NCCNCCCc1ccc(S(=O)(=O)C(F)(F)F)cc1)c1cc(-c2ccccc2)cc2cnccc12 [Example 102, 7-Phenyl-isoquinoline-5-sulfonic acid {2-[3-(4-trifluoromethanesulfonyl-phenyl)-propylamino]-ethyl}-amide, dihydrochloride salt]
≤ 2000	O=S(=O)(NCCNCC(O)C(O)c1ccc(S(=O)(=O)C(F)(F)F)cc1)c1cc(-c2ccccc2)cc2cnccc12 (centres unmarked) [Example 113, 7-Phenyl-isoquinoline-5-sulfonic acid {2-[2,3-dihydroxy-3-(4-trifuoromethanesulfonyl-phenyl)-propylamino]-ethyl}-amide, dihydrochloride salt]
≤ 2000	Cc1ccc([N+](=O)[O-])cc1CCCNCCNS(=O)(=O)c1cc(-c2ccccc2)cc2cnccc12 [Example 39, 7-Phenyl-isoquinoline-5-sulfonic acid {2-[3-(2-methyl-5-nitrophenyl)-propylamino]-ethyl}-amide, dihydrochloride salt]
